Source: patent US20230087140A1, “TREATMENT OF PAIN ASSOCIATED WITH CESAREAN SECTION SURGERY WITH SUSTAINED-RELEASE LIPOSOMAL ANESTHETIC COMPOSITIONS” (Pacira Pharmaceuticals, Inc., priority 2020, published 2023)
Where a name gives a salt, the structure may show the parent alone.

Key:
[1] = system: patients undergoing elective cesarean delivery; test: Clinical trial safety: treatment-emergent adverse events through day 14 (safety analysis set)
[2] = system: patients undergoing elective cesarean delivery; test: Randomized double-blind clinical trial, efficacy of TAP block after cesarean delivery (opioid consumption, VAS pain); assay type: in vivo, human; conditions: mITT
[3] = cited from earlier work
[4] = TEAEs occurring in >5% of patients in either group
[5] = safety analysis set, through day 14
[6] = treatment-relatedness determined by the investigator

CCCCN1CCCCC1C(=O)Nc1c(C)cccc1C (centres unmarked) [BUPI HCl alone, bupivacaine hydrochloride]
TEAE: Back pain [1, 4]: 5 (5.6) number (percentage)
TEAE: Constipation [1, 4]: 4 (4.5) number (percentage)
TEAE: Dizziness [1, 4]: 5 (5.6) number (percentage)
TEAE: Headache [1, 4]: 10 (11.2) number (percentage)
TEAE: Nausea [1, 4]: 11 (12.4) number (percentage)
TEAE: Pruritus [1, 4]: 28 (31.5) number (percentage)
TEAE: Rash [1, 4]: 3 (3.4) number (percentage)
TEAE: Vomiting [1, 4]: 6 (6.7) number (percentage)
Any TEAE [1, 5]: 50 (56.2) number (percentage)
Any treatment-related TEAE [1, 5]: 9 (10.1) number (percentage)
Fatal TEAE [1, 5]: 0 (0.0) number (percentage)
Serious TEAE [1, 5]: 3 (3.4) number (percentage)
Serious TEAEs ([1]; summary of results): ~3%
fatal TEAEs ([1]; summary of results): no fatal TEAEs
patients who experienced a TEAE ([1]; summary of results): 56.2%
Treatment-related TEAE: Back pain [1, 6]: 1 (1.1) number (percentage)
Treatment-related TEAE: Dizziness [1, 6]: 0 (0.0) number (percentage)
Treatment-related TEAE: Dysuria [1, 6]: 1 (1.1) number (percentage)
Treatment-related TEAE: Nausea [1, 6]: 0 (0.0) number (percentage)
Treatment-related TEAE: Pruritus [1, 6]: 8 (9.0) number (percentage)
Treatment-related TEAE: Vomiting [1, 6]: 0 (0.0) number (percentage)
percentage of opioid-free patients at 24 hours ([2]; 24 hours): 93.7%
percentage of opioid-free patients at 48 hours ([2]; 48 hours): 50.6%
percentage of opioid-free patients at 72 hours ([2]; 72 hours): 48.6%
percentage of opioid-spared patients at 72 hours ([2]; 72 hours): 24.7%
median time to first opioid rescue ([2]; median): 41.1 h
LSM (SE) AUC0-72 of VAS pain intensity scores through 72 hours ([2]; through 72 hours, hydrochloride): 178.5 (19.78)
expected duration of action in spinal anesthesia ([3]; 1.4 to 1.6 mL hyperbaric BUPI HCl 0.75%, spinal): ~2 h
duration of analgesia ([3]; standard local anesthetics, TAP block background): 5 to 8 h
